What was measured:
[1] = Acute toxicity after i.v. administration in NMRI-mice (Litchfield and Wilcoxon); settings: mouse, in vivo, iv, both sexes, deaths within 14 days, read-out: LD50 in the mouse after i.v. application
Description: The acute toxicity was determined with NMRI-mice of both sexes (body weight 20 gm) after intravenous administration of the compound. 0.1 ml of a 0.9% sodium chloride solution per 10gm of animal was used as the vehicle.

[2] = system: heart rate; assay: Effect on heart rate of the anesthetized cat after intravenous administration; assay type: in vivo; set-up: key to type of the reaction (heart rate): --: decrease in heart rate; settings: i.v.; for ED10 (dose leading to a 10% alteration of the heart rate) / ED25 (dose leading to a 25% alteration of the heart rate): graphic extrapolation; for type of the reaction (heart rate): tested dosage range 250 - 4,000 γ/kg (A 12.5 - 16,000; W 125 - 4,000)
Description: The effect on the heart rate was tested on cats of both sexes (body weight between 2.3 and 3.5 kg) under chloralose-urethane anesthesia. The heart rate was continuously registered by means of a Grass-tachograph 7P4, controlled by the R-wave of the electrocardiogram. The test compound was injected through a catheter introduced into the vena femoralis.

[3] = system: acetylcholine-induced bronchospasm; assay: Antagonism to acetylcholine-provoked bronchospasm in anesthetized guinea pigs (Konzett and Rossler), i.v.; antiasthmatic / bronchospasmolytic activity; assay type: in vivo; settings: guinea pig; for ED50: Cavia porcellus, iv, 20γ acetylcholine per kg i.v., graphic extrapolation, read-out: Bronchospasmolytic ED50 against acetylcholine-induced bronchospasm
Description: The antiasthmatic activity was tested as the antagonism to bronchospasm provoked by intravenous administration of 20γ of acetylcholine per kg body weight in anesthetized guinea pigs (according to method of Konzett and Rossler). From the average percentage decrease of the bronchospasm produced by administering various doses of the compounds of the […] invention an ED50 was determined by graphic extrapolation. The compounds were administered intravenously.

[4] = system: quantity of secretion; assay: Expectorant (secretolytic) activity in anesthetized guinea pigs (Perry et al, modified by Engelhorn et al), oral; assay type: in vivo; settings: guinea pig, dose 0.5 γ/kg, over 2 hours
Description: The expectorant activity was ascertained by the method of Perry et al, J. Pharmcol. exp. Therap. 73, 65 (1941), as modified by Engelhorn et al, Arzneim. Forsch. 21, 1045 (1971), on male guinea pigs (body weight from 450 to 550 gm), which has been anesthetized by intraperitoneal injection of a 25% urethane solution (1.0 gm/kg). The test compound was administered orally at the indicated dosage levels, each in 2 ml of distilled water, by means of an esophageal tube. 5 tests per dose. The increase in secretion was calculated from the quantity of fluid secreted over a period of 2 hours after administration of the test compound, as compared to the quantity secreted without administration of the test compound.

CC(C)N(CCCN1c2ccccc2N(C)C(=O)c2cccnc21)C(C)C.Cl [J, 6,11-dihydro-11-(3'-diisopropylamino-n-propyl)-6-methyl-5H-pyrido[2,3-b][1,5]benzodiazepin-5one hydrochloride]
LD50 at 336 h [1]: 22.6 mg/kg
ED10 (dose leading to a 10% alteration of the heart rate) [2]: 1,950 γ/kg
ED25 (dose leading to a 25% alteration of the heart rate) [2]: > 4,000 γ/kg
type of the reaction (heart rate) [2]: --
ED50 [3]: 0.0165 mg/kg
Average duration of effective action in the ED50 range [3]: 50 min
percent change in quantity of secretion (increase) [4]: 108%

CCN(CCCN1c2ccccc2N(C)C(=O)c2cccnc21)C(C)C.Cl [K, 11-[3'-(n-ethyl-N-isopropyl-amino)-n-propyl]-6,11-dihydro-6-methyl-5H-pyrido[2,3-b][1,5]benzodiazepin-5-one hydrochloride]
LD50 at 336 h [1]: 30 mg/kg
ED10 (dose leading to a 10% alteration of the heart rate) [2]: 1,350 γ/kg
ED25 (dose leading to a 25% alteration of the heart rate) [2]: > 4,000 γ/kg
type of the reaction (heart rate) [2]: --
ED50 [3]: 0.02 mg/kg
Average duration of effective action in the ED50 range [3]: > 80 min
percent change in quantity of secretion (increase) [4]: 113%

— patent US4021557A, “11-Aminoalkyl-pyridobenzodiazepinones and salts thereof” (Boehringer Ingelheim GmbH, priority 1974, dated 1977)
